Blank lines part the entries; values can stand above or below the molecule they belong to.
Experiments:
Experiment in all cases: isothermal titration calorimetry
Assay type in all cases: binding
[1] = target: BACOVA_04394 (xylan HTCS sensor), periplasmic domain (Bacteroides ovatus, UniProt A0ABU3IPP8); settings: 25 °C, HEPES pH 8.0; for Ka / (M^-1): single-site fit; for Ka: binding seen, too low to fit (TLTF)
Excerpt: isothermal titration calorimetry on BACOVA_04394 (xylan HTCS sensor), periplasmic domain

[2] = target: BACOVA_02740 (β-glucan HTCS sensor), periplasmic domain (Bacteroides ovatus, UniProt A0ABU3IRK2); settings: 25 °C, HEPES pH 8.0; for Ka / (M^-1): single-site fit
Excerpt: isothermal titration calorimetry on BACOVA_02740 (β-glucan HTCS sensor), periplasmic domain

[3] = target: T1, BT0366 (arabinan HTCS sensor), periplasmic domain (Bacteroides thetaiotaomicron, UniProt Q8AAU8); settings: 25 °C, HEPES pH 8.0; two-site fit, site 1 (stronger)
T1 construct: gene BT_0366
T1 sequence (Q8AAU8 24-810 limits assumed): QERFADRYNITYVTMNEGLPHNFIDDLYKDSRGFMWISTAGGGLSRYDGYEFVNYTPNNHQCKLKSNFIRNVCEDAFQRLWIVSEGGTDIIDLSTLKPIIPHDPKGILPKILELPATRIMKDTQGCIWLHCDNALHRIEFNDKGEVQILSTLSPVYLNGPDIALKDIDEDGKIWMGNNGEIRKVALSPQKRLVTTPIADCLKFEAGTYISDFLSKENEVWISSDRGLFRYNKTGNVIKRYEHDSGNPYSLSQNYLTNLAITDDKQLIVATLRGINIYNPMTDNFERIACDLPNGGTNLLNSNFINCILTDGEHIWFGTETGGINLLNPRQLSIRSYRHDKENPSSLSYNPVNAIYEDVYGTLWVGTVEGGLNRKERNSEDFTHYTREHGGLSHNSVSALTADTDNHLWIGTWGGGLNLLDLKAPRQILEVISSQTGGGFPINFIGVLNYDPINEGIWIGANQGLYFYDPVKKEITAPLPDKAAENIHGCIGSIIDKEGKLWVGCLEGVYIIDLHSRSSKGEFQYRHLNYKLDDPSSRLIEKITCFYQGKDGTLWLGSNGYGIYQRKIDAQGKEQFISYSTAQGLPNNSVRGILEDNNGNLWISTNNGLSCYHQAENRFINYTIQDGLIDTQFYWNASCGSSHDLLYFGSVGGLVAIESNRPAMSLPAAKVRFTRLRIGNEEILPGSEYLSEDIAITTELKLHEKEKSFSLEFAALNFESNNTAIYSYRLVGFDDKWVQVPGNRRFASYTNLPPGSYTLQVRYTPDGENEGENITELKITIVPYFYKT
Excerpt: isothermal titration calorimetry on BT0366 (arabinan HTCS sensor), periplasmic domain

Chain of BACOVA_02740 (β-glucan HTCS sensor), periplasmic domain (A0ABU3IRK2 21-759 limits assumed): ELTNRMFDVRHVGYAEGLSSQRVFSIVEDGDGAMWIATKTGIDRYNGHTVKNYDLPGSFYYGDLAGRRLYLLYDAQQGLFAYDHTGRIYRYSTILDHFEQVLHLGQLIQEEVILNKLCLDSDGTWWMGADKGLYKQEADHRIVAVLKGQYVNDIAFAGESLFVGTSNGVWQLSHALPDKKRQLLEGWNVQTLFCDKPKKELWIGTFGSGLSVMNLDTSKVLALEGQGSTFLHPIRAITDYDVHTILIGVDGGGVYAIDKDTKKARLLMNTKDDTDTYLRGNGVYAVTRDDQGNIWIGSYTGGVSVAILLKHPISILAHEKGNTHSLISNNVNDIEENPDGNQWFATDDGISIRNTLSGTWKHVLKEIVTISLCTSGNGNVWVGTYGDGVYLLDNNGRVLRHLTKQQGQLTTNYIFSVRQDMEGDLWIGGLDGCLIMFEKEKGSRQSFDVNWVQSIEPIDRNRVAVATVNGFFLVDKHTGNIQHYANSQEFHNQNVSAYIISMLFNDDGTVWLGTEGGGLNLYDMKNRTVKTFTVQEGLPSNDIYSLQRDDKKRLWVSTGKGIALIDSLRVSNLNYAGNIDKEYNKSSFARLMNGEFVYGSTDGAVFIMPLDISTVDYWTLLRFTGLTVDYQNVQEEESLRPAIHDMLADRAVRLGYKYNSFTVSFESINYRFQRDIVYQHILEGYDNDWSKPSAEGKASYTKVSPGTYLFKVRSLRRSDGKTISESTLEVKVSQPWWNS
Chain of BACOVA_04394 (xylan HTCS sensor), periplasmic domain (A0ABU3IPP8 21-805 limits assumed): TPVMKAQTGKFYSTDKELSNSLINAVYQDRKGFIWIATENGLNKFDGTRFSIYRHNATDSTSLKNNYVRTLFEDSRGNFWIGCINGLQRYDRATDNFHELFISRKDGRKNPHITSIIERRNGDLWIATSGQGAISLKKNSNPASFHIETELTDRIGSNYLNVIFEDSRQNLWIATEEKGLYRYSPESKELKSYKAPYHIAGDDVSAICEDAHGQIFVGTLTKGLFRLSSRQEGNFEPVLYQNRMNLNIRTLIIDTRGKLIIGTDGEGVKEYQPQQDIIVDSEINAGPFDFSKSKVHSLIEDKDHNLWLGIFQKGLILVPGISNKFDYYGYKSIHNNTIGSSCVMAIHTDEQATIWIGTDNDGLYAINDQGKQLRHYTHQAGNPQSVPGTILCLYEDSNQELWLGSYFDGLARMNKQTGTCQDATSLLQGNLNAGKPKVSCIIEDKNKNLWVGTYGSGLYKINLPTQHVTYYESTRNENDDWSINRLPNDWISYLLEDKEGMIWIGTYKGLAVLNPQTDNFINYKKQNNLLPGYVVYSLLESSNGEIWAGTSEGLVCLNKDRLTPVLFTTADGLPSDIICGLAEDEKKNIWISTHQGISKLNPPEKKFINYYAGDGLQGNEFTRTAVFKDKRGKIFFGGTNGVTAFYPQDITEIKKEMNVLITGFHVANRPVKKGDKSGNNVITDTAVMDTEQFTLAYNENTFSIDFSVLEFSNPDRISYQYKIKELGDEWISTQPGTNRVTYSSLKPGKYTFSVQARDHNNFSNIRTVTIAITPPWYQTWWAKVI

- Ka / (M^-1) [1]: 6.8E5±1.2
Structure (SMILES): OC1OC[C@@H](O[C@@H]2OC[C@@H](O[C@@H]3OC[C@@H](O[C@@H]4OC[C@@H](O)[C@H](O)[C@H]4O)[C@H](O)[C@H]3O)[C@H](O)[C@H]2O)[C@H](O)[C@H]1O (stereo partly drawn) [Xylotetraose]

- Ka [1]: ∼5.0×10^2
Structure (SMILES): OC1OC[C@@H](O[C@@H]2OC[C@@H](O)[C@H](O)[C@H]2O)[C@H](O)[C@H]1O (stereo partly drawn) [Xylobiose]

- Ka / (M^-1) [2]: 3.4E3±1.9
Structure (SMILES): OC[C@H]1O[C@@H](O[C@H]2[C@H](O)[C@@H](O)[C@H](O[C@H]3[C@H](O)[C@@H](CO)OC(O)[C@@H]3O)O[C@@H]2CO)[C@H](O)[C@@H](O)[C@@H]1O (stereo partly drawn) [Glucotriose B (β4,3)]

- Ka / (M^-1) [1]: 1.1E3±0.1
Structure (SMILES): OC1OC[C@@H](O[C@@H]2OC[C@@H](O[C@@H]3OC[C@@H](O)[C@H](O)[C@H]3O)[C@H](O)[C@H]2O)[C@H](O)[C@H]1O (stereo partly drawn) [Xylotriose]

- Ka [1]: ∼5.0×10^2
Structure (SMILES): OC1OC[C@@H](O[C@@H]2OC[C@@H](O[C@@H]3OC[C@@H](O[C@@H]4OC[C@@H](O[C@@H]5OC[C@@H](O[C@@H]6OC[C@@H](O)[C@H](O)[C@H]6O)[C@H](O)[C@H]5O)[C@H](O)[C@H]4O)[C@H](O)[C@H]3O)[C@H](O)[C@H]2O)[C@H](O)[C@H]1O (stereo partly drawn) [Xylohexaose]

- Ka / (M^-1) [1]: 8.8E4±2.9
Structure (SMILES): OC1OC[C@@H](O[C@@H]2OC[C@@H](O[C@@H]3OC[C@@H](O[C@@H]4OC[C@@H](O[C@@H]5OC[C@@H](O)[C@H](O)[C@H]5O)[C@H](O)[C@H]4O)[C@H](O)[C@H]3O)[C@H](O)[C@H]2O)[C@H](O)[C@H]1O (stereo partly drawn) [Xylopentaose]

Second part, the molecule before the results:

Structure (SMILES): OC[C@H]1O[C@@H](O[C@H]2[C@H](O)[C@@H](O)[C@H](O[C@@H]3[C@@H](O)[C@H](O[C@H]4[C@H](O)[C@@H](O)C(O)O[C@@H]4CO)O[C@H](CO)[C@H]3O)O[C@@H]2CO)[C@H](O)[C@@H](O)[C@@H]1O (stereo partly drawn) [Glucotetraose C (β4,3,4)]
- Ka / (M^-1) [2]: 3.2E4±0.7

Structure (SMILES): OC[C@@H]1O[C@@H](OC[C@@H]2O[C@@H](OC[C@@H]3O[C@@H](OC[C@@H]4O[C@@H](OC[C@@H]5O[C@@H](OC[C@@H]6OC(O)[C@H](O)[C@H]6O)[C@H](O)[C@H]5O)[C@H](O)[C@H]4O)[C@H](O)[C@H]3O)[C@H](O)[C@H]2O)[C@H](O)[C@H]1O (stereo partly drawn) [Arabinohexaose]
- Ka / (M^-1) [3]: 3.9E3±0.9

Structure (SMILES): OC[C@@H]1O[C@@H](OC[C@@H]2O[C@@H](OC[C@@H]3O[C@@H](OC[C@@H]4O[C@@H](OC[C@@H]5O[C@@H](OC[C@@H]6O[C@@H](OC[C@@H]7O[C@@H](OC[C@@H]8OC(O)[C@H](O)[C@H]8O)[C@H](O)[C@H]7O)[C@H](O)[C@H]6O)[C@H](O)[C@H]5O)[C@H](O)[C@H]4O)[C@H](O)[C@H]3O)[C@H](O)[C@H]2O)[C@H](O)[C@H]1O (stereo partly drawn) [Arabinooctaose]
- Ka / (M^-1) [3]: 4.8E4±0.1

Structure (SMILES): OC[C@H]1O[C@@H](O[C@@H]2[C@@H](O)[C@H](O[C@H]3[C@H](O)[C@@H](O)[C@H](O[C@H]4[C@H](O)[C@@H](O)[C@H](O[C@H]5[C@H](O)[C@@H](O)C(O)O[C@@H]5CO)O[C@@H]4CO)O[C@@H]3CO)O[C@H](CO)[C@H]2O)[C@H](O)[C@@H](O)[C@@H]1O (stereo partly drawn) [Glucopentaose A (β3,4,4,4)]
- Ka ([2]; binding seen, too low to fit (TLTF)): ∼5.0×10^2

Structure (SMILES): OC[C@H]1O[C@@H](O[C@H]2[C@H](O)[C@@H](O)[C@H](O[C@H]3[C@H](O)[C@@H](O)[C@H](O[C@H]4[C@H](O)[C@@H](CO)OC(O)[C@@H]4O)O[C@@H]3CO)O[C@@H]2CO)[C@H](O)[C@@H](O)[C@@H]1O (stereo partly drawn) [Glucotetraose B (β4,4,3)]
- Ka / (M^-1) [2]: 2.5E3±1.3

Structure (SMILES): OC[C@@H]1O[C@@H](OC[C@@H]2O[C@@H](OC[C@@H]3O[C@@H](OC[C@@H]4O[C@@H](OC[C@@H]5O[C@@H](OC[C@@H]6O[C@@H](OC[C@@H]7OC(O)[C@H](O)[C@H]7O)[C@H](O)[C@H]6O)[C@H](O)[C@H]5O)[C@H](O)[C@H]4O)[C@H](O)[C@H]3O)[C@H](O)[C@H]2O)[C@H](O)[C@H]1O (stereo partly drawn) [Arabinoheptaose]
- Ka / (M^-1) [3]: 3.5E4±0.6

— publication PMC3243724, “Recognition and Degradation of Plant Cell Wall Polysaccharides by Two Human Gut Symbionts” (PLoS Biology, 2011)
